Values of other authors as cited in US10926237B2, “Soluble corrosion resistant sol-gel” (THE BOEING COMPANY, priority 2018, dated 2021).

- water solubility (in words): water soluble
Structure (SMILES): Sc1nnc(S)s1 [2,5-Dimercapto-1,3,4-thiadiazole, 2,5-dimercapto-1,3,4-thiadiazole]
